Test results from PubChem BioAssay AID1259407 (Chemical Carcinogenesis Research Information System (CCRIS), 2018).
Calls of active or inactive are those of the source. How the calls were made is not given here.

System: CCRIS mutagenicity, Ames/micronucleus/aberration tests
Experiment: CCRIS mutagenicity studies
[1] = Test System: AMES SALMONELLA TYPHIMURIUM, Strain/Indicator: TA100, Metabolic Activation: NONE, Method: STANDARD PLATE

## CC(=O)Nc1ccc(C(=O)CCl)cc1
Test System: AMES SALMONELLA TYPHIMURIUM, Strain/Indicator: TA98, Metabolic Activation: HAMSTER, LIVER, S-9, AROCLOR 1254, Method: STANDARD PLATE
  mutagenic call: active; positive
Test System: AMES SALMONELLA TYPHIMURIUM, Strain/Indicator: TA98, Metabolic Activation: HAMSTER, LIVER, S-9, Method: STANDARD PLATE
  mutagenic call: active; positive
Test System: AMES SALMONELLA TYPHIMURIUM, Strain/Indicator: TA98, Metabolic Activation: MOUSE, LIVER, S-9, Method: STANDARD PLATE
  mutagenic call: inactive; negative
Test System: AMES SALMONELLA TYPHIMURIUM, Strain/Indicator: TA98, Metabolic Activation: NONE
  mutagenic call: active; positive
Test System: AMES SALMONELLA TYPHIMURIUM, Strain/Indicator: TA98, Metabolic Activation: RAT, LIVER, S-9, AROCLOR 1254, Method: STANDARD PLATE
  mutagenic call: inactive; negative
Test System: AMES SALMONELLA TYPHIMURIUM, Strain/Indicator: TA98, Metabolic Activation: RAT, LIVER, S-9, PHENOBARBITONE AND BETA-NAPHTHOFLAVONE
  mutagenic call: active; positive
Test System: AMES SALMONELLA TYPHIMURIUM, Strain/Indicator: TA98, Metabolic Activation: RAT, LIVER, S-9, Method: STANDARD PLATE
  mutagenic call: inactive; negative
Test System: AMES SALMONELLA TYPHIMURIUM, Strain/Indicator: TA100, Metabolic Activation: HAMSTER, LIVER, S-9, AROCLOR 1254, Method: STANDARD PLATE
  mutagenic call: inactive; negative
Test System: AMES SALMONELLA TYPHIMURIUM, Strain/Indicator: TA100, Metabolic Activation: HAMSTER, LIVER, S-9, Method: STANDARD PLATE
  mutagenic call: inactive; negative
Test System: AMES SALMONELLA TYPHIMURIUM, Strain/Indicator: TA100, Metabolic Activation: MOUSE, LIVER, S-9, AROCLOR 1254, Method: STANDARD PLATE
  mutagenic call: inactive; negative
Test System: AMES SALMONELLA TYPHIMURIUM, Strain/Indicator: TA100, Metabolic Activation: MOUSE, LIVER, S-9, Method: STANDARD PLATE
  mutagenic call: inactive; negative
Test System: AMES SALMONELLA TYPHIMURIUM, Strain/Indicator: TA100, Metabolic Activation: NONE
  mutagenic call: inactive; negative
[1]
  mutagenic call: inactive; negative
Test System: AMES SALMONELLA TYPHIMURIUM, Strain/Indicator: TA100, Metabolic Activation: RAT, LIVER, S-9, AROCLOR 1254, Method: STANDARD PLATE
  mutagenic call: inactive; negative
Test System: AMES SALMONELLA TYPHIMURIUM, Strain/Indicator: TA100, Metabolic Activation: RAT, LIVER, S-9, PHENOBARBITONE AND BETA-NAPHTHOFLAVONE
  mutagenic call: inactive; negative
Test System: AMES SALMONELLA TYPHIMURIUM, Strain/Indicator: TA100, Metabolic Activation: RAT, LIVER, S-9, Method: STANDARD PLATE
  mutagenic call: inactive; negative
Test System: AMES SALMONELLA TYPHIMURIUM, Strain/Indicator: TA1535, Metabolic Activation: HAMSTER, LIVER, S-9, AROCLOR 1254, Method: STANDARD PLATE
  mutagenic call: inactive; negative
Test System: AMES SALMONELLA TYPHIMURIUM, Strain/Indicator: TA1535, Metabolic Activation: HAMSTER, LIVER, S-9, Method: STANDARD PLATE
  mutagenic call: inactive; negative
Test System: AMES SALMONELLA TYPHIMURIUM, Strain/Indicator: TA1535, Metabolic Activation: MOUSE, LIVER, S-9, AROCLOR 1254, Method: STANDARD PLATE
  mutagenic call: inactive; negative
Test System: AMES SALMONELLA TYPHIMURIUM, Strain/Indicator: TA1535, Metabolic Activation: MOUSE, LIVER, S-9, Method: STANDARD PLATE
  mutagenic call: inactive; negative
Test System: AMES SALMONELLA TYPHIMURIUM, Strain/Indicator: TA1535, Metabolic Activation: NONE, Method: STANDARD PLATE
  mutagenic call: inactive; negative
Test System: AMES SALMONELLA TYPHIMURIUM, Strain/Indicator: TA1535, Metabolic Activation: RAT, LIVER, S-9, AROCLOR 1254, Method: STANDARD PLATE
  mutagenic call: inactive; negative
Test System: AMES SALMONELLA TYPHIMURIUM, Strain/Indicator: TA1535, Metabolic Activation: RAT, LIVER, S-9, Method: STANDARD PLATE
  mutagenic call: inactive; negative
Test System: AMES SALMONELLA TYPHIMURIUM, Strain/Indicator: TA1537, Metabolic Activation: HAMSTER, LIVER, S-9, Method: STANDARD PLATE
  mutagenic call: inactive; negative
Test System: AMES SALMONELLA TYPHIMURIUM, Strain/Indicator: TA1537, Metabolic Activation: MOUSE, LIVER, S-9, Method: STANDARD PLATE
  mutagenic call: inactive; negative
Test System: AMES SALMONELLA TYPHIMURIUM, Strain/Indicator: TA1538, Metabolic Activation: NONE
  mutagenic call: inactive; negative
Test System: AMES SALMONELLA TYPHIMURIUM, Strain/Indicator: TA1538, Metabolic Activation: RAT, LIVER, S-9, AROCLOR 1254, Method: STANDARD PLATE
  mutagenic call: inactive; negative
Test System: AMES SALMONELLA TYPHIMURIUM, Strain/Indicator: TA1538, Metabolic Activation: RAT, LIVER, S-9, PHENOBARBITONE AND BETA-NAPHTHOFLAVONE
  mutagenic call: active; positive
Test System: AMES SALMONELLA TYPHIMURIUM, Strain/Indicator: TA1538, Metabolic Activation: RAT, LIVER, S-9, Method: STANDARD PLATE
  mutagenic call: inactive; negative
Test System: E. COLI, Strain/Indicator: WP2 UVRA, Metabolic Activation: HAMSTER, LIVER, S-9, AROCLOR 1254, Method: STANDARD PLATE
  mutagenic call: inactive; negative
Test System: E. COLI, Strain/Indicator: WP2 UVRA, Metabolic Activation: HAMSTER, LIVER, S-9, Method: STANDARD PLATE
  mutagenic call: inactive; negative
Test System: E. COLI, Strain/Indicator: WP2 UVRA, Metabolic Activation: MOUSE, LIVER, S-9, Method: STANDARD PLATE
  mutagenic call: inactive; negative
Test System: E. COLI, Strain/Indicator: WP2 UVRA, Metabolic Activation: NONE, Method: STANDARD PLATE
  mutagenic call: inactive; negative
Test System: E. COLI, Strain/Indicator: WP2 UVRA, Metabolic Activation: RAT, LIVER, S-9, AROCLOR 1254, Method: STANDARD PLATE
  mutagenic call: inactive; negative
Test System: E. COLI, Strain/Indicator: WP2 UVRA, Metabolic Activation: RAT, LIVER, S-9, Method: STANDARD PLATE
  mutagenic call: inactive; negative

## CNP(=S)(N1CC1)N1CC1
Test System: AMES SALMONELLA TYPHIMURIUM, Strain/Indicator: G46, Metabolic Activation: HOST MEDIATED, Method: STANDARD PLATE
  mutagenic call: active; positive

## Fc1cccc2ccc3ncccc3c12
Test System: AMES SALMONELLA TYPHIMURIUM, Strain/Indicator: TA100, Metabolic Activation: RAT, LIVER, S-9, PHENOBARBITAL AND 5,6-BENZOFLAVONE, Method: PREINCUBATION
  mutagenic call: active; positive

## C=CCOC(=O)c1ccccc1N
Test System: AMES SALMONELLA TYPHIMURIUM, Strain/Indicator: TA98, Metabolic Activation: HAMSTER, LIVER, S-9, AROCLOR 1254 (10%), Method: PREINCUBATION
  mutagenic call: inactive; negative
Test System: AMES SALMONELLA TYPHIMURIUM, Strain/Indicator: TA98, Metabolic Activation: NONE, Method: PREINCUBATION
  mutagenic call: inactive; negative
Test System: AMES SALMONELLA TYPHIMURIUM, Strain/Indicator: TA98, Metabolic Activation: RAT, LIVER, S-9, AROCLOR 1254 (10%), Method: PREINCUBATION
  mutagenic call: inactive; negative
Test System: AMES SALMONELLA TYPHIMURIUM, Strain/Indicator: TA100, Metabolic Activation: HAMSTER, LIVER, S-9, AROCLOR 1254 (10%), Method: PREINCUBATION
  mutagenic call: inactive; negative
Test System: AMES SALMONELLA TYPHIMURIUM, Strain/Indicator: TA100, Metabolic Activation: NONE, Method: PREINCUBATION
  mutagenic call: inactive; negative
Test System: AMES SALMONELLA TYPHIMURIUM, Strain/Indicator: TA100, Metabolic Activation: RAT, LIVER, S-9, AROCLOR 1254 (10%), Method: PREINCUBATION
  mutagenic call: inactive; negative
Test System: AMES SALMONELLA TYPHIMURIUM, Strain/Indicator: TA1535, Metabolic Activation: HAMSTER, LIVER, S-9, AROCLOR 1254 (10%), Method: PREINCUBATION
  mutagenic call: inactive; negative
Test System: AMES SALMONELLA TYPHIMURIUM, Strain/Indicator: TA1535, Metabolic Activation: NONE, Method: PREINCUBATION
  mutagenic call: inactive; negative
Test System: AMES SALMONELLA TYPHIMURIUM, Strain/Indicator: TA1535, Metabolic Activation: RAT, LIVER, S-9, AROCLOR 1254 (10%), Method: PREINCUBATION
  mutagenic call: inactive; negative
Test System: AMES SALMONELLA TYPHIMURIUM, Strain/Indicator: TA1537, Metabolic Activation: HAMSTER, LIVER, S-9, AROCLOR 1254 (10%), Method: PREINCUBATION
  mutagenic call: inactive; negative
Test System: AMES SALMONELLA TYPHIMURIUM, Strain/Indicator: TA1537, Metabolic Activation: NONE, Method: PREINCUBATION
  mutagenic call: inactive; negative
Test System: AMES SALMONELLA TYPHIMURIUM, Strain/Indicator: TA1537, Metabolic Activation: RAT, LIVER, S-9, AROCLOR 1254 (10%), Method: PREINCUBATION
  mutagenic call: inactive; negative

## COc1cccc2c1C(=O)c1c(O)c3c(c(O)c1C2=O)CC(O)(C(C)=O)CC3O[C@H]1C[C@H](N2CCOCC2)[C@@H](O)C(C)O1 (some centres undefined)
Test System: CHINESE HAMSTER V-79, Strain/Indicator: V-79/8-AZAGUANINE, Metabolic Activation: NONE
  mutagenic call: active; positive
Test System: CHINESE HAMSTER V-79, Strain/Indicator: V-79/8-AZAGUANINE, Metabolic Activation: RAT, HEPATOCYTES
  mutagenic call: inactive; negative
Test System: UDS RAT HEPATOCYTES, Strain/Indicator: THY INCORP, Metabolic Activation: NONE, Method: AUTOMATIC COLONY COUNTER
  mutagenic call: active; positive

## Cc1ccc2cc3c(c4c2c1CC4)C1NC1c1ccccc1-3 (centres undefined)
Test System: AMES SALMONELLA TYPHIMURIUM, Strain/Indicator: TA98, Metabolic Activation: NONE, Method: STANDARD PLATE
  mutagenic call: active; positive
[1]
  mutagenic call: active; positive
